Measurements as given in the NIST ThermoML archive (doi:10.1016/j.jct.2017.09.022).
Several values for one entry are separate records, joined by “and”; a condition that tells them apart may be missing. Equal values may be shown once.

Experiment: molar heat capacity at constant pressure
Conditions: 101.33 kPa, Crystal, Small (less than 1 g) adiabatic calorimetry

C[C@@H](O)[C@H](N)C(=O)O [L-threonine]
Conditions | molar heat capacity at constant pressure
63.96 K | 43.87 J/K/mol
64.76 K | 44.47 J/K/mol
65.57 K | 44.98 J/K/mol
66.38 K | 45.55 J/K/mol
67.19 K | 46.09 J/K/mol
67.99 K | 46.67 J/K/mol
68.8 K | 47.24 J/K/mol
69.61 K | 47.68 J/K/mol
70 K | 48.06 J/K/mol
70.54 K | 48.31 J/K/mol
71.58 K | 49.14 J/K/mol
72.63 K | 49.7 J/K/mol
73.67 K | 50.33 J/K/mol
74.72 K | 50.78 J/K/mol
75.77 K | 51.34 J/K/mol
76.82 K | 51.96 J/K/mol
77.87 K | 52.51 J/K/mol
78.92 K | 53.08 J/K/mol
79.65 K | 53.03 J/K/mol
79.97 K | 53.66 J/K/mol
80 K | 53.55 J/K/mol
80.45 K | 53.52 J/K/mol
81.02 K | 54.31 J/K/mol
81.25 K | 53.96 J/K/mol
82.06 K | 54.87 J/K/mol and 54.48 J/K/mol
82.86 K | 54.97 J/K/mol
83.11 K | 55.52 J/K/mol
83.66 K | 55.42 J/K/mol
84.17 K | 56.16 J/K/mol
84.46 K | 55.88 J/K/mol
85.26 K | 56.34 J/K/mol
86.06 K | 56.87 J/K/mol
86.86 K | 57.38 J/K/mol
87.65 K | 57.86 J/K/mol
88.45 K | 58.33 J/K/mol
89.25 K | 58.77 J/K/mol
90 K | 59.28 J/K/mol
90.05 K | 59.23 J/K/mol
90.85 K | 59.72 J/K/mol
91.64 K | 60.19 J/K/mol
92.44 K | 60.74 J/K/mol
93.24 K | 61.3 J/K/mol
94.04 K | 61.77 J/K/mol
94.84 K | 62.19 J/K/mol
95.63 K | 62.65 J/K/mol
96.43 K | 63.12 J/K/mol
97.23 K | 63.64 J/K/mol
98.02 K | 64.16 J/K/mol
98.82 K | 64.62 J/K/mol
99.62 K | 65.04 J/K/mol
100 K | 65.27 J/K/mol
100.5 K | 65.53 J/K/mol
101.45 K | 66.12 J/K/mol
102.41 K | 66.61 J/K/mol
103.36 K | 67.11 J/K/mol
104.32 K | 67.67 J/K/mol
105.27 K | 68.2 J/K/mol
106.22 K | 68.79 J/K/mol
107.18 K | 69.35 J/K/mol
108.13 K | 69.83 J/K/mol
109.09 K | 70.36 J/K/mol
110 K | 70.84 J/K/mol
110.05 K | 70.8 J/K/mol
111 K | 71.32 J/K/mol
111.95 K | 71.94 J/K/mol
112.91 K | 72.42 J/K/mol
113.86 K | 72.95 J/K/mol
114.82 K | 73.43 J/K/mol
115.77 K | 73.97 J/K/mol
116.72 K | 74.36 J/K/mol
117.68 K | 74.92 J/K/mol
118.63 K | 75.5 J/K/mol
119.59 K | 75.89 J/K/mol
120 K | 76.16 J/K/mol
120.53 K | 76.35 J/K/mol
121.49 K | 76.8 J/K/mol
122.44 K | 77.45 J/K/mol
123.39 K | 77.91 J/K/mol
124.35 K | 78.3 J/K/mol
125.3 K | 78.8 J/K/mol
126.25 K | 79.27 J/K/mol
127.21 K | 79.82 J/K/mol
128.16 K | 80.26 J/K/mol
129.11 K | 80.78 J/K/mol
130 K | 81.23 J/K/mol
130.07 K | 81.26 J/K/mol
131.02 K | 81.7 J/K/mol
131.97 K | 82.11 J/K/mol
132.93 K | 82.72 J/K/mol
133.87 K | 83.14 J/K/mol
134.82 K | 83.73 J/K/mol
135.76 K | 84.14 J/K/mol
136.71 K | 84.56 J/K/mol
137.66 K | 85.22 J/K/mol
138.61 K | 85.64 J/K/mol
139.56 K | 85.97 J/K/mol
140 K | 86.22 J/K/mol
140.51 K | 86.55 J/K/mol
141.46 K | 87.05 J/K/mol
142.41 K | 87.47 J/K/mol
143.36 K | 87.8 J/K/mol
144.31 K | 88.38 J/K/mol
